The results in this text go back to ChEMBL document CHEMBL4346733, “Evaluation of amidoxime derivatives as prodrug candidates of potent bis-cationic antimalarials” (Bioorg Med Chem Lett, 2019).

Series [1] relates to Plasmodium vinckei petteri. In words: Antimalarial activity against Plasmodium vinckei petteri 279BY infected in Swiss mouse assessed as reduction in parasitemia administered once daily via oral gavage starting from day 1 to day 4 post infection measured on day 5 Giemsa staining based flow cytometric analysis. Format: functional. For orientation: A flow cytometer gives signals particle by particle.

In series [2] the test system is Plasmodium vinckei petteri. In words: Antimalarial activity against Plasmodium vinckei petteri 279BY infected in Swiss mouse assessed as reduction in parasitemia administered once daily via intraperitoneal route starting from day 1 to day 4 post infection measured on day 5 Giemsa staining based flow cytometric analysis. Format: functional. As to conditions: ip.
Series [3] has as its system Plasmodium falciparum. The series is described as follows: Antimalarial activity against chloroquine-sensitive Plasmodium falciparum Nigerian infected in human blood after 48 hrs by [3H]-hypoxanthine incorporation assay. Format: functional, organism-based.
Series [4] can be described thus: Retention time of compound at 0.05 mg/ml by HPLC analysis. Format: physicochemical.
Series [5] in a line: Retention time of compound in human liver microsomes at 0.5 mM after 2 hrs HPLC-UV analysis. Format: ADME, Microsome. As to conditions: 500 µM. For orientation: Liver microsomes are vesicles of endoplasmic reticulum, rich in cytochrome P450 enzymes.
Series [6] is described as follows: Stability of compound in human blood at 1000 ug/ml up to 120 mins by HPLC-UV analysis. As to conditions: 2 h. Format: ADME, tissue-based.
Series [7] is described as follows: Drug metabolism in human liver microsomes assessed as monoamidine-1 formation by measuring retention time of metabolite at 0.5 mM after 2 hrs by HPLC-UV analysis. Format: ADME, Microsome. The note with it: 500 µM.
Series [8] can be described thus: Drug metabolism in human liver microsomes assessed as 1-(4-N-isopropylamidinophenoxy)-8-N-isopropylamidinooctane dihydrochloride formation by measuring disappearance of parent compound at 0.5 mM after 2 hrs by HPLC-UV analysis. Format: ADME, Microsome. The note with it: 500 µM.
Series [9] is described as follows: Drug metabolism in human liver microsomes assessed as disappearance of parent compound at 0.5 mM after 2 hrs by HPLC-UV analysis. Format: ADME, Microsome. As to conditions: read-out: Drug metabolism.
Series [10] can be described thus: Drug metabolism in human liver microsomes assessed as 1-(4-N-isopropylamidinophenoxy)-8-N-isopropylamidinooctane dihydrochloride formation by measuring retention time of metabolite at 0.5 mM after 2 hrs by HPLC-UV analysis. Format: ADME, Microsome. The note with it: 500 µM.
The nature of series [11]: Stability of compound in human plasma at 1000 ug/ml up to 120 mins by HPLC-UV analysis. The note with it: 2 h. Format: ADME, cell-free.
In series [12] the test system is Plasmodium vinckei petteri. The series is described as follows: Antimalarial activity against Plasmodium vinckei petteri 279BY infected in Swiss mouse assessed as reduction in parasitemia at dosed intraperitoneally once daily for 4 consecutive days starting from day 1 to day 4 post infection and measured on day 28 by Giemsa staining based flow cytometric analysis. Format: functional. Also noted: scale not given: the % may be the effect or the level left.

The subject of series [13] is Plasmodium vinckei petteri. In words: Antimalarial activity against Plasmodium vinckei petteri 279BY infected in Swiss mouse assessed as reduction in parasitemia at 20 mg/kg, ip once daily for 4 consecutive days starting from day 1 to day 4 post infection and measured on day 5 Giemsa staining based flow cytometric analysis. Format: functional, organism-based.
Series [14] deals with Plasmodium vinckei petteri. In words: Selectivity index, ratio of ED50 for antimalarial activity against Plasmodium vinckei petteri 279BY infected in Swiss mouse administered via intraperitoneal route to ED50 for antimalarial activity against Plasmodium vinckei petteri 279BY infected in Swiss mouse administered via oral route. Format: functional.
A short description of series [15]: Drug metabolism in human liver microsomes assessed as 1-(4-N-pyrrolidinylamidinophenoxy)-8-N-pyrrolidinylamidinooctane dihydrochloride formation by measuring retention time of metabolite at 0.5 mM after 2 hrs by LC-MS analysis. The note with it: 500 µM. Format: ADME, Microsome.
Series [16] has as its system Plasmodium falciparum. The series is described as follows: Antimalarial activity against chloroquine-sensitive Plasmodium falciparum Nigerian after 48 hrs by [3H]-hypoxanthine incorporation assay. Format: functional, organism-based.
The nature of series [17]: Drug metabolism in human liver microsomes assessed as 1-(4-Amidinophenoxy)-8-amidinooctane dihydrochloride formation by measuring retention time of metabolite at 0.5 mM after 2 hrs by HPLC-UV analysis. Format: ADME, Microsome. As to conditions: 500 µM.

Calls of active or inactive are those of the source. No cut-off for these calls is given here. A value given as a limit tells only on which side of the number the result lay.

On to `CO/N=C(\NCCCCCCCCCCCCN/C(=N\OC)c1ccccc1)c1ccccc1`, for which the ED50 in series [1] is greater than 90 mg/kg; in series [2], greater than 20 mg/kg.
On the same counts, the results for `CO/N=C(\NCCCCCCCCCCCCN/C(=N\OC)c1ccc(OC)c(OC)c1)c1ccc(OC)c(OC)c1` are greater than 90 mg/kg and greater than 20 mg/kg.
In the case of `CC(C)NC(=N)CCCCCCCCOc1ccc(C(=N)NC(C)C)cc1.Cl.Cl`, the ED50 was determined as 110 mg/kg in [1] and 2.8 mg/kg in [2]. The molecule further had a half-inhibitory concentration (IC50) with Plasmodium falciparum [3] of 9.5 nM. The same molecule had a Retention_time in series [4] of 10.1 min.
In the case of `Cl.Cl.N=C(N)CCCCCCCCCCCOc1ccc(C(=N)N)cc1`, the ED50 in [2] was found to be 2.2 mg/kg. Moreover, the IC50 with Plasmodium falciparum [3] stood at 195 nM.
As to `Br.Br.CC(C)N/C(=N\O)c1ccc(OCCCCCCCC/C(=N\O)NC(C)C)cc1`, the values for the ED50 in series [1] and in series [2] were greater than 180 mg/kg and greater than 20 mg/kg, respectively. Moreover, the Retention_time amounted to 13.3 min in [5], 12.1 min in series [7], 13.1 min in series [4] and 10 min in series [10]. The Stability entry in [6] and in series [11] was “Stable” throughout. The Drug metabolism in series [8] is reported as 90%. Further, the metabolised at 2 h, 500 µM in series [9] was found to be 6%.
With `Cc1c(CCO)sc[n+]1CCCCCCCCCCCC/C(N)=N/O.[Br-]`, the ED50 is greater than 180 mg/kg in [1] and 20 mg/kg in series [2]. In the series on Plasmodium falciparum [3], the 50% inhibitory concentration (IC50) was determined as 240 nM.
On to `N/C(=N\O)c1ccc(OCCCCCOc2ccc(/C(N)=N/O)cc2)cc1` [PENTAMIDINE DAO], for which the Retention_time in series [5] amounted to 29 min; in series [4] it was 22.3 min. Further, the Stability entry in series [6] and in series [11] was “Stable” in each case. Further, the metabolised at 2 h, 500 µM in [9] was 3%.
In the case of `Cc1c(CCO)sc[n+]1CCCCCCCCOc1ccc(/C(N)=N/O)cc1.[Br-]`, the ED50 is 85 mg/kg in series [1] and greater than 20 mg/kg in series [2]. For the same molecule, the Activity in series [12] was found to be 100%. This molecule also gave a 50% inhibitory concentration (IC50) in the series on Plasmodium falciparum [3] of 360 nM. Further, in series [13], the result was inactive. For the same molecule, the “Ratio ED50” value in [14] is on record as greater than 0.23.
For `CCN(CC)CCCC(C)Nc1ccnc2cc(Cl)ccc12` (centres undefined) [CHLOROQUINE], the ED50 in series [1] was 3.4 mg/kg; in [2], 1.1 mg/kg.
As for `N=C(N)c1ccc(OCCCCCOc2ccc(C(=N)N)cc2)cc1` [PENTAMIDINE], the Retention_time in series [5] came to 25.1 min; in series [4], 25.4 min. Further, the metabolised at 2 h, 500 µM in series [9] was 82%.
For `Cl.Cl.N=C(N)CCCCCCCCOc1ccc(C(=N)N)cc1`, the results for the ED50 in [1] and in series [2] were greater than 90 mg/kg and 9 mg/kg, respectively. The IC50 with Plasmodium falciparum [3] turned out to be 51.5 nM. This molecule also came in with a Retention_time in series [4] of 12.9 min.
For `C[C@H]1[C@H](OC(=O)CCC(=O)O)O[C@@H]2O[C@@]3(C)CC[C@H]4[C@H](C)CC[C@@H]1[C@@]24OO3` [ARTESUNATE], the ED50 in [2] amounted to 1.2 mg/kg.
On to `Cc1c(CCO)sc[n+]1CCCCCCCCCCCOc1ccc(/C(N)=N/O)cc1.[Br-]`, for which the values for the ED50 in [1] and in series [2] were greater than 90 mg/kg and greater than 20 mg/kg, respectively. In the series with Plasmodium falciparum [3], the IC50 amounted to 315 nM.
Regarding `Cl.Cl.N=C(CCCCCCCCOc1ccc(C(=N)N2CCCC2)cc1)N1CCCC1`, the ED50 in series [1] came out at 51 mg/kg; in [2], 1.4 mg/kg. Further, the midpoint of inhibition in the series on Plasmodium falciparum [3], the IC50, lay at 16 nM. Also, the Retention_time in series [4] is on record as 11.8 min.
Turning to `COc1ccc(/C(=N/O)NCCCCCCCCCCCCN/C(=N\O)c2ccc(OC)c(OC)c2)cc1OC`, the ED50 in [1] was greater than 90 mg/kg; in [2], 9.1 mg/kg.
On to `COc1cccc(/C(=N/O)NCCCCCCCCCCCCN/C(=N\O)c2cccc(OC)c2)c1`, for which the ED50 was greater than 90 mg/kg in series [1] and greater than 20 mg/kg in [2].
Regarding `Br.Br.O/N=C(/c1ccc(OCCCCCCCC/C(=N\O)N2CCCC2)cc1)N1CCCC1`, the ED50 in series [1] was greater than 100 mg/kg; in series [2], 10 mg/kg. The values for the Retention_time in series [5], in series [4] and in series [15] were 12.3 min, 12.6 min and 11.8 min, respectively. For the same molecule, the Stability entry in series [6] and in [11] was “Stable” in each case. The metabolised at 2 h, 500 µM in series [9] is 14%.
With `O/N=C(\NCCCCCCCCCCCCN/C(=N\O)c1ccccc1)c1ccccc1`, the ED50 in series [1] is greater than 90 mg/kg; in [2], greater than 20 mg/kg.
On the same counts, the results for `CO/N=C(\NCCCCCCCCCCCCN/C(=N\OC)c1cccc(OC)c1)c1cccc(OC)c1` are greater than 90 mg/kg and greater than 20 mg/kg.
Consider `COc1ccc(/C(=N/O)NCCCCCCCCCCCCN/C(=N\O)c2ccc(OC)cc2)cc1`, for which the 50% effective dose (ED50) in series [1] is greater than 90 mg/kg; in series [2] it was greater than 20 mg/kg. This molecule showed an IC50 with Plasmodium falciparum [3] of 24000 nM.
On the same counts, the results for `COCCc1sc[n+](CCCCCCCCCCCOc2ccc(/C(N)=N/O)cc2)c1C.[Br-]` are greater than 90 mg/kg, 8.8 mg/kg and 530 nM.
Regarding `Cc1c(CCO)sc[n+]1CCCCCCCCCCCCC(=N)N`, the IC50 with Plasmodium falciparum [16] came out at 2.2 nM.
As for `Br.Br.N/C(=N\O)c1ccc(OCCCCCCCC/C(N)=N\O)cc1`, the median effective dose (ED50) was greater than 180 mg/kg in series [1] and greater than 10 mg/kg in [2]. Also, the Retention_time in [5] amounted to 15.6 min; in series [17], 17.3 min; in series [7] it was 16.5 min; in series [4] it was 11.5 min. Besides, the Stability entry in [6] and in series [11] was “Stable” throughout. In the series on Plasmodium falciparum [3], this molecule yielded an IC50 of 2000 nM. Besides, in series [9], the metabolised at 2 h, 500 µM was found to be 7%.

As a reminder, the ED50 is the dose that gives a 50% effect, or the effect in half of the subjects. By IC50 is commonly meant the concentration that inhibits the measured activity by half.
